Measurements taken from US20100144733A1, “Compounds, compositions and methods comprising heteroaromatic derivatives” (Institute for OneWorld Health, priority 2008, published 2010).
Read-outs that look alike come from different tables or passages of the source.

Legend:
CFTR = target: T1, CFTR (Homo sapiens, UniProt P13569); test: T84 assay (FLIPR membrane potential dye, forskolin/IBMX-stimulated CFTR channel activity); type: cell-based
T1 construct: endogenous in cells; host or cells: T84 human colonic cells (ECACC)
T1 sequence (P13569 whole entry): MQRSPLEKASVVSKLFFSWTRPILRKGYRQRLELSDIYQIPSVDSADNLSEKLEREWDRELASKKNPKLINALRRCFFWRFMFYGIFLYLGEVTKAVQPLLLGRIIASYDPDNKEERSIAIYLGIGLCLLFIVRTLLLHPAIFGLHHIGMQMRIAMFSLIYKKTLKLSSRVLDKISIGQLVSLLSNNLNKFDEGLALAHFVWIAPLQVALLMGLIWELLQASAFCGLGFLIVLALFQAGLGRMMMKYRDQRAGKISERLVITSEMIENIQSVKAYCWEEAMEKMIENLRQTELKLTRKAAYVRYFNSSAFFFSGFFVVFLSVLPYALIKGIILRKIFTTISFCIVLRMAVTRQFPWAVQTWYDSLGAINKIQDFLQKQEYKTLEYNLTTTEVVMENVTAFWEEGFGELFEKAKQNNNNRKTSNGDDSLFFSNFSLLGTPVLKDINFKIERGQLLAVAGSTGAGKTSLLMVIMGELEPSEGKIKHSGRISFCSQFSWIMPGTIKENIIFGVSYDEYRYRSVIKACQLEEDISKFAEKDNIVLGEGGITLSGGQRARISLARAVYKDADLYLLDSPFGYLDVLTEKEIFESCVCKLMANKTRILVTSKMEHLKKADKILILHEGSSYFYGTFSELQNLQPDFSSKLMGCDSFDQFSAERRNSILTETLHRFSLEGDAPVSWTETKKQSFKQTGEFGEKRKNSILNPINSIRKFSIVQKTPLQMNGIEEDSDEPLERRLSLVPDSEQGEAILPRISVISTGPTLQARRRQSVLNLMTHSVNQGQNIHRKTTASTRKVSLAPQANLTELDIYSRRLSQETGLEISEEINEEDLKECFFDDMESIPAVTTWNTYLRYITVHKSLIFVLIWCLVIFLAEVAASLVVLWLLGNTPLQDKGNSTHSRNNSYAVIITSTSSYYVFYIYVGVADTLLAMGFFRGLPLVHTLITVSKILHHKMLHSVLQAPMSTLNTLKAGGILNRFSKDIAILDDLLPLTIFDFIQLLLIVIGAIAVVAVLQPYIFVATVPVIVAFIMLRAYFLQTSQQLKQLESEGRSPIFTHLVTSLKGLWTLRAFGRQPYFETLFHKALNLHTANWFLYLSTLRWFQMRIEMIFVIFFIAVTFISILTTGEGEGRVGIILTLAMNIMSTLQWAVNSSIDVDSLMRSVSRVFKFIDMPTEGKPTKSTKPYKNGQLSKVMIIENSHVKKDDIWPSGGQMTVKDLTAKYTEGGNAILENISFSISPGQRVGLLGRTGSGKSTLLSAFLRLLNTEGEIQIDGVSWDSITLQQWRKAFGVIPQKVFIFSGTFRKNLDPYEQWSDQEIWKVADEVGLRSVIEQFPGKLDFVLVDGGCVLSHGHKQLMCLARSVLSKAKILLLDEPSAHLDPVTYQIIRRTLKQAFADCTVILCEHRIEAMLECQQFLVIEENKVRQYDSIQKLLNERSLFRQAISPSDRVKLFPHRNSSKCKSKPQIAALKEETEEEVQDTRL
Outline: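 Fluorescence from a membrane potential dye in T84 monolayers (HBSS with 10 mM Hepes) is followed each second for 150 s. Cells are exposed to test compound during the 45 min dye loading, then challenged with forskolin (10 μM) and IBMX (100 μM) to open CFTR. Inhibitors suppress the depolarization-driven fluorescence increase.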

[1] = tested on: cholera toxin (CTX) induced net fluid secretion in intestinal loops; test: animal or person; type: in vivo, mice (CD1 strain); settings: 4 hours; for inhibition in vivo at 100 µg/loop: Mus musculus, read-out: closed loop % inhibition @ 100 μg
CHO-CFTR cell line = target: T2, CHO-CFTR cell line (Homo sapiens, UniProt P13569); test: CHO-CFTR assay (FLIPR assay, same conditions as the T84 assay); type: cell-based; settings: imidazole and triazole-containing compounds
T2 construct: expressed in transfected cells; host or cells: CHO (CHO-CFTR cell line)
T2 sequence (P13569 whole entry): as above

[2] = oxadiazole-containing compounds (a series), average of at least 2 runs unless annotated n = 1, read-out: IC50
[3] = imidazole and triazole-containing compounds (Tables 13, 14, 14′), read-out: IC50 (μM) (T84 assay)

Row | Structure (SMILES) | IC50 (CFTR; [3]) [µM] | IC50 (CHO-CFTR cell line) [µM] | other results
1 | CC(C)(C)C(=O)CN(Cc1cccc(C(F)(F)F)c1)C(=O)c1nc(-c2cc(Br)c(O)c(Br)c2)no1 [1a, 3-(3,5-dibromo-4-hydroxyphenyl)-N-(3,3-dimethyl-2-oxobutyl)-N-(3-(trifluoromethyl)benzyl)-1,2,4-oxadiazole-5-carboxamide] | – | – | IC50 (CFTR; [2]): 0.98 µM; closed loop % inhibition @ 10 μg [1]: 69.4%; inhibition in vivo at 100 µg/loop [1]: 87.1%
2 | CN(Cc1ccc(C(F)(F)F)cc1)C(=O)c1cc(-c2cc(Br)c(O)c(Br)c2)on1 [2g, 5-(3,5-Dibromo-4-hydroxyphenyl)-N-methyl-N-(4(trifluoromethyl)benzyl)isoxazole-3-carboxamide] | – | – | IC50 (CFTR; isoxazole-containing compounds (Table 10, 10′, 11, 11′), read-out: IC50): 6.96 µM; closed loop % inhibition @ 10 μg [1]: −66.3%; inhibition in vivo at 100 µg/loop [1]: 94.2%
3 | O=C(NCc1ccc(Oc2ccccc2)cc1)c1nc(-c2cc(Br)c(O)c(Br)c2)no1 [13a, 3-(3,5-dibromo-4-hydroxyphenyl)-N-(4-phenoxybenzyl)-1,2,4-oxadiazole-5-carboxamide] | – | – | IC50 (CFTR; [2]): 8.51 µM; closed loop % inhibition @ 10 μg [1]: 88.6%; inhibition in vivo at 100 µg/loop [1]: 94.7%
4 | Oc1c(Br)cc(-c2cnc(OCc3ccc(Cl)cc3)nn2)cc1Br [20e, 2,6-dibromo-4-(3-(4-chlorobenzyloxy)-1,2,4-triazin-6-yl)phenol] | – | – | closed loop % inhibition @ 100 μg [1]: 87.6%
5 | Oc1c(Br)cc(-c2cnc(COc3cccc(Cl)c3Cl)nn2)cc1Br [30e, 2,6-dibromo-4(3-((2,3-dichlorophenoxy)methyl)-1,2,4-triazin-6-yl)phenol] | – | – | closed loop % inhibition @ 100 μg [1]: 94.4%
6 | Oc1c(Cl)cc(-c2cnc(C(O)(c3ccccc3)c3ccccc3)nn2)cc1Cl [36e, 2,6-dichloro-4-(3-(hydroxydiphenylmethyl)-1,2,4-triazin-6-yl)phenol] | – | – | closed loop % inhibition @ 10 μg [1]: 62.1%; closed loop % inhibition @ 100 μg [1]: 74.9%
7 | Oc1c(Br)cc(-c2cnc(OCCc3ccccc3)nn2)cc1Br [96e, 2,6-dibromo-4-(3-phenethoxy-1,2,4-triazin-6-yl)phenol] | – | – | closed loop % inhibition @ 100 μg [1]: 78.6%
8 | OCCN(Cc1ccccc1)c1ccc(-c2cc(Cl)c(O)c(Cl)c2)nn1 [98f, 4-(6-(benzyl(2-hydroxyethyl)amino)pyridazin-3-yl)-2,6-dichlorophenol] | – | – | closed loop % inhibition @ 100 μg [1]: 67.0%
9 | C=CCN(Cc1cccc(OC(F)(F)F)c1)C(=O)c1ncn(-c2cc(Cl)c(O)c(Cl)c2)n1 [103i, N-allyl-1-(3,5-dichloro-4-hydroxyphenyl)-N-(3-(trifluoromethoxy)benzyl)-1H-1,2,4-triazole-3-carboxamide] | 2.53 | 32.9 | –
10 | C=CCN(Cc1cccc(C(F)(F)F)c1)C(=O)c1ncn(-c2cc(Cl)c(O)c(Cl)c2)n1 [104i, N-allyl-1-(3,5-dichloro-4-hydroxyphenyl)-N-(3-(trifluoromethyl)benzyl)-1H-1,2,4-triazole-3-carboxamide] | 5.83 | 41.9 | –
11 | CC(C)(C)CCN(Cc1ccc(Oc2ccccc2)cc1)C(=O)c1ncn(-c2cc(Cl)c(O)c(Cl)c2)n1 [105i, 1-(3,5-dichloro-4-hydroxyphenyl)-N-(3,3-dimethylbutyl)-N-(4-phenoxybenzyl)-1H-1,2,4-triazole-3-carboxamide] | 3.64 | 11.3 | –
12 | CC(C)(C)CCN(Cc1ccc(C(C)(C)C)cc1)C(=O)c1ncn(-c2cc(Cl)c(O)c(Cl)c2)n1 [106i, N-(4-tert-butylbenzyl)-1-(3,5-dichloro-4-hydroxyphenyl)-N-(3,3-dimethylbutyl)-1H-1,2,4-triazole-3-carboxamide] | 1.8 | 13.1 | –
13 | CC(C)(C)CCN(Cc1ccc(Cl)c(Cl)c1)C(=O)c1ncn(-c2cc(Cl)c(O)c(Cl)c2)n1 [107i, 1-(3,5-dichloro-4-hydroxyphenyl)-N-(3,4-dichlorobenzyl)-N-(3,3-dimethylbutyl)-1H-1,2,4-triazole-3-carboxamide] | 1.73 | 26.9 | –
14 | CCN(Cc1ccc(Cl)c(Cl)c1)C(=O)c1ncn(-c2cc(Cl)c(O)c(Cl)c2)n1 [108i, 1-(3,5-dichloro-4-hydroxyphenyl)-N-(3,4-dichlorobenzyl)-N-ethyl-1H-1,2,4-triazole-3-carboxamide] | 2.99 | 4.08 | –
15 | O=C(c1ncn(-c2cc(Cl)c(O)c(Cl)c2)n1)N(Cc1cccnc1)Cc1ccc(Cl)c(Cl)c1 [109i, 1-(3,5-dichloro-4-hydroxyphenyl)-N-(3,4-dichlorobenzyl)-N-(pyridin-3-ylmethyl)-1H-1,2,4-triazole-3-carboxamide] | 3.06 | 10.2 | –
16 | O=C(c1ncn(-c2cc(Cl)c(O)c(Cl)c2)n1)N(Cc1cccnc1)Cc1cccc(OC(F)(F)F)c1 [110i, 1-(3,5-dichloro-4-hydroxyphenyl)-N-(pyridin-3-ylmethyl)-N-(3-(trifluoromethoxy)benzyl)-1H-1,2,4-triazole-3-carboxamide] | 4.48 | 7.8 | –

Row | Structure (SMILES) | IC50 (CFTR; [3]) [µM] | IC50 (CHO-CFTR cell line) [µM] | other results
17 | COCCOCCOCCOCCN(Cc1ccc(Oc2ccccc2)cc1)C(=O)c1ncn(-c2cc(Cl)c(O)c(Cl)c2)n1 [112i, 1-(3,5-dichloro-4-hydroxyphenyl)-N-(4-phenoxybenzyl)-N-(2,5,8,11-tetraoxatridecan-13-yl)-1H-1,2,4-triazole-3-carboxamide] | 12.5 | 26.1 | –
18 | COCCOCCOCCN(Cc1ccc(Cl)c(Cl)c1)C(=O)c1ncn(-c2cc(Cl)c(O)c(Cl)c2)n1 [114i, 1-(3,5-dichloro-4-hydroxyphenyl)-N-(3,4-dichlorobenzyl)-N-(2-(2-(2-methoxyethoxy)ethoxy)ethyl)-1H-1,2,4-triazole-3-carboxamide] | 6.63 | 22.7 | –
19 | CCN(Cc1ccccc1)c1ccc(-c2cc(Cl)c(O)c(Cl)c2)nn1 [115f, 4-(6-(benzyl(ethyl)amino)pyridazin-3-yl)-2,6-dichlorophenol] | – | – | closed loop % inhibition @ 100 μg [1]: 79.4%
20 | COCCOCCOCCN(Cc1ccc(Oc2ccccc2)cc1)C(=O)c1ncn(-c2cc(Cl)c(O)c(Cl)c2)n1 [119i, 1-(3,5-dichloro-4-hydroxyphenyl)-N-(2-(2-(2-methoxyethoxy)ethoxy)ethyl)-N-(4-phenoxybenzyl)-1H-1,2,4-triazole-3-carboxamide] | 5.11 | 11.5 | –
21 | CON(Cc1cccc(C(F)(F)F)c1)C(=O)c1ncn(-c2cc(Cl)c(O)c(Cl)c2)n1 [124i, 1-(3,5-dichloro-4-hydroxyphenyl)-N-methoxy-N-(3-(trifluoromethyl)benzyl)-1H-1,2,4-triazole-3-carboxamide] | 8.22 | 6.03 | –
22 | CON(Cc1cccc(OC(F)(F)F)c1)C(=O)c1ncn(-c2cc(Cl)c(O)c(Cl)c2)n1 [125i, 1-(3,5-dichloro-4-hydroxyphenyl)-N-methoxy-N-(3-(trifluoromethoxy)benzyl)-1H-1,2,4-triazole-3-carboxamide] | 3.44 | 9.67 | –
23 | CON(Cc1ccc(Cl)c(Cl)c1)C(=O)c1ncn(-c2cc(Cl)c(O)c(Cl)c2)n1 [126i, 1-(3,5-dichloro-4-hydroxyphenyl)-N-(3,4-dichlorobenzyl)-N-methoxy-1H-1,2,4-triazole-3-carboxamide] | 2.43 | 2.46 | –
24 | Oc1c(Cl)cc(-c2cnc(OCc3ccccc3F)nn2)cc1Cl [127e, 2,6-dichloro-4-(3-(2-fluorobenzyloxy)-1,2,4-triazin-6-yl)phenol] | – | – | closed loop % inhibition @ 10 μg [1]: 62.7%; closed loop % inhibition @ 100 μg [1]: 70.2%
25 | CON(Cc1ccc(C(C)(C)C)cc1)C(=O)c1ncn(-c2cc(Cl)c(O)c(Cl)c2)n1 [127i, N-(4-tert-butylbenzyl)-1-(3,5-dichloro-4-hydroxyphenyl)-N-methoxy-1H-1,2,4-triazole-3-carboxamide] | 1.49 | 32.9 | –
26 | CON(Cc1ccc(Oc2ccccc2)cc1)C(=O)c1ncn(-c2cc(Cl)c(O)c(Cl)c2)n1 [129i, 1-(3,5-dichloro-4-hydroxyphenyl)-N-methoxy-N-(4-phenoxybenzyl)-1H-1,2,4-triazole-3-carboxamide] | 2.61 | 22.5 | –
27 | CCON(Cc1ccc(Oc2ccccc2)cc1)C(=O)c1ncn(-c2cc(Cl)c(O)c(Cl)c2)n1 [130i, 1-(3,5-dichloro-4-hydroxyphenyl)-N-ethoxy-N-(4-phenoxybenzyl)-1H-1,2,4-triazole-3-carboxamide] | 2.84 | 4.09 | –
28 | O=C(c1ncn(-c2cc(Cl)c(O)c(Cl)c2)n1)N(O)Cc1ccc(Oc2ccccc2)cc1 [131i, 1-(3,5-dichloro-4-hydroxyphenyl)-N-hydroxy-N-(4-phenoxybenzyl)-1H-1,2,4-triazole-3-carboxamide] | 4.87 | 7.45 | –
29 | CC(C)(C)C(=O)C(Cc1cccc(C(F)(F)F)c1)NC(=O)c1ncn(-c2cc(Cl)c(O)c(Cl)c2)n1 (stereo not drawn) [132i, 1-(3,5-dichloro-4-hydroxyphenyl)-N-(4,4-dimethyl-3-oxo-1-(3-(trifluoromethyl)phenyl)pentan-2-yl)-1H-1,2,4-triazole-3-carboxamide] | 3.87 | 26.5 | –
30 | CC(C)(C)C(=O)C(Cc1cccc(OC(F)(F)F)c1)NC(=O)c1ncn(-c2cc(Cl)c(O)c(Cl)c2)n1 (stereo not drawn) [133i, 1-(3,5-dichloro-4-hydroxyphenyl)-N-(4,4-dimethyl-3-oxo-1-(3-(trifluoromethoxy)phenyl)pentan-2-yl)-1H-1,2,4-triazole-3-carboxamide] | 1.23 | 21 | –
31 | CC(C)c1ccc(CC(NC(=O)c2ncn(-c3cc(Cl)c(O)c(Cl)c3)n2)C(=O)C(C)(C)C)cc1 (stereo not drawn) [134i, 1-(3,5-dichloro-4-hydroxyphenyl)-N-(1-(4-isopropylphenyl)-4,4-dimethyl-3-oxopentan-2-yl)-1H-1,2,4-triazole-3-carboxamide] | 3.09 | 8.6 | –
